Reference: ChEMBL document CHEMBL2010737, “Synthesis, modeling and functional activity of substituted styrene-amides as small-molecule CXCR7 agonists” (Eur J Med Chem, 2012)
Calls of active or inactive are those of the source. No cut-off for these calls is given here.

Key:
[1] = target: T1, Atypical chemokine receptor 3 (Homo sapiens, UniProt P25106); experiment: Displacement of [125I]-CXCL12 from human CXCR7 expressed in HEK293 cells after 3 hrs; format: cell-based
[2] = target: T1, Atypical chemokine receptor 3; experiment: Agonist activity at human CXCR7 expressed in HEK293T cells co-expressing beta-arrestin2-YFP assessed as beta-arrestin2 recruitment after 1 hr by BRET assay; format: functional, cell-based, HEK-293T; settings: for Activity: HEK-293T
[3] = target: T1, Atypical chemokine receptor 3; experiment: Agonist activity at human CXCR7 expressed in HEK293 cells assessed as reduction of receptor surface expression at 10^-5 M after 1 hr by ELISA based internalization assay; format: functional, cell-based
[4] = target: T1, Atypical chemokine receptor 3; experiment: Agonist activity at human CXCR7 expressed in HEK293 cells assessed as reduction of receptor surface expression after 1 hr by ELISA based internalization assay; format: functional, cell-based

T1 sequence (P25106 whole entry): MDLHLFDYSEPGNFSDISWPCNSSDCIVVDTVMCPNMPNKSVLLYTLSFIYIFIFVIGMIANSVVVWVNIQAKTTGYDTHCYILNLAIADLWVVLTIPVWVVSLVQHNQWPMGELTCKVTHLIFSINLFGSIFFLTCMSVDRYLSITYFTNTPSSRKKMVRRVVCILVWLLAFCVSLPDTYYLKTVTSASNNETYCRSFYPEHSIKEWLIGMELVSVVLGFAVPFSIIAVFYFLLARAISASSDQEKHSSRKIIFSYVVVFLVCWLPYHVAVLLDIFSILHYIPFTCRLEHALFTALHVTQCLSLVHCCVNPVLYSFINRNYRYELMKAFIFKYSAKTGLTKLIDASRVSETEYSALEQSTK

SMILES | Ki [1] [nM] | further results
COc1cc(C(=O)N(CCCN2CCOCC2)C/C(C)=C/c2ccccc2)cc(OC)c1OC | 398 | –
COc1cc(C(=O)N(CCCO)C/C(C)=C/c2ccccc2)cc(OC)c1OC | 1580 | –
COc1cc(C(=O)N(CCCN2CCCCC2C)C/C(C)=C/c2ccccc2)cc(OC)c1OC (racemic) | 200 | –
COc1cc(C(=O)N(CCC2CCCN2C)C/C(C)=C/c2ccccc2)cc(OC)c1OC (racemic) | 15.8 | –
COc1cc(C(=O)N(C/C=C(\C)c2ccccc2)CCC2CCCN2C)cc(OC)c1OC (racemic) | 12.6 | –
COc1cc(C(=O)N(C/C=C/c2ccccc2)CCC2CCCN2C)cc(OC)c1OC (racemic) | 794 | –
COc1ccc(C(=O)N(CCC2CCCN2C)C/C(C)=C/c2ccccc2)cc1C (racemic) | 794 | –
COc1cc(C(=O)N(CCC2CCCN2C)C/C(C)=C/c2ccc(F)cc2F)cc(OC)c1OC (racemic) | 31.6 | –
COc1ccc(C(=O)N(CCC2CCCN2C)C/C(C)=C/c2ccc(F)cc2F)cc1OC (racemic) | 100 | –
COc1cc(C(=O)N(CCC2CCCN2C)C/C(C)=C/c2ccc(F)cc2)cc(OC)c1OC (racemic) | 50.1 | –
COc1ccc(C(=O)N(CCC2CCCN2C)C/C(C)=C/c2cccc(F)c2)cc1OC (racemic) | 100 | –
COc1cc(C(=O)N(CCC2CCCN2C)C/C(C)=C/c2cc(F)cc(C(F)(F)F)c2)cc(OC)c1OC (racemic) | 5010 | EC50 [2]: 1400 nM; Activity [3]: Active
COc1ccc(C(=O)N(CCC2CCCN2C)C/C(C)=C/c2cc(F)cc(C(F)(F)F)c2)cc1OC (racemic) | 5010 | –
COc1ccc(/C=C(\C)CN(CCC2CCCN2C)C(=O)c2cc(OC)c(OC)c(OC)c2)c(F)c1 (racemic) | 1260 | –
C/C(=C\c1ccc(F)cc1F)CN(CCC1CCCN1C)C(=O)c1ccc2c(c1)OCO2 (racemic) | 3160 | –

Further molecules by falling Ki [1], results first:

Ki [1] [nM] | SMILES | further results
1580 | C/C(=C\c1ccc(F)cc1F)CN(CCC1CCCN1C)C(=O)c1ccc2c(c1)OCCO2 (racemic) | –
1260 | COc1ccc(/C=C(\C)CN(CCC2CCCN2C)C(=O)c2ccc(OC)c(OC)c2)c(F)c1 (racemic) | –
1260 | COc1ccc(C(=O)N(CCC2CCCN2C)C/C(C)=C/c2ccccc2)c(OC)c1 (racemic) | –
794 | C/C(=C\c1ccccc1)CN(CCC1CCCN1C)C(=O)c1ccc2c(c1)OCCO2 (racemic) | –
79.4 | COc1ccc(C(=O)N(CCC2CCCN2C)C/C(C)=C/c2ccc(F)cc2)cc1OC (racemic) | –
79.4 | COc1cc(C(=O)N(CCC2CCCN2C)C/C(C)=C/c2cccc(F)c2)cc(OC)c1OC (racemic) | –
25.1 | COc1ccc(C(=O)N(CCC2CCCN2C)C/C(C)=C/c2ccccc2)cc1OC (racemic) | –
20 | COc1ccc(C(=O)N(CCC2CCCN2C)C/C(C)=C/c2ccccc2F)cc1OC (racemic) | EC50 [2]: 1 nM; Activity [2]: Dose-dependent effect; Activity [4]: Dose-dependent effect; EC50 [4]: 23.7 nM
7.94 | COc1cc(C(=O)N(CCC2CCCN2C)C/C(C)=C/c2ccccc2F)cc(OC)c1OC (racemic) | EC50 [2]: 1.6 nM; Activity [2]: Dose-dependent effect; Activity [4]: Dose-dependent effect; EC50 [4]: 14.1 nM
